Reference: patent US7511284B2, “Photostabilisation of fluorescent dyes” (International University Bremen GmbH, priority 2004, dated 2009)
Marks after values point to notes of the source that are not given here.

Assays:
[1] = Fluorescence quantum yield and brightness with and without CB7; format: physicochemical; design: ε × φf (brightness): unit not given beside the values
[2] = Absorption and fluorescence maxima with and without CB7; format: physicochemical; design: unit not given here
Text: Addition of cucurbiturils leads to the formation of complexes with fluorescent dyes, which have changed photophysical properties, see examples in Table 3.

[3] = Decrease of fluorescence intensity of dye solutions stored in daylight (ambient light); format: physicochemical; settings: for Stabilisation factor: with 1 mM CB7, daylight; for fluorescence intensity after exposure to daylight: 300 hours
Procedure: As an alternative, the decrease in the fluorescence intensity of the above-described solutions was determined by observing their fluorescence (Cary Eclipse Fluorometer, Varian) when the solutions were stored in daylight (ambient light). The fluorescence intensity remained unchanged over the observation period for the solution containing cucurbituril, whereas it felt markedly for the cucurbituril-free solution (FIG. 3), with approximate half-lives of about 80 to 390 hours, depending on the sample vessel.

[4] = Photostabilisation of fluorescent dyes by cucurbiturils (preliminary tests, tests carried out hitherto); settings: for photostabilisation by the use of a cucurbituril: in particular cucurbit[7]uril; for photostabilisation of conventional fluorescent dyes by the cucurbituril: preliminary tests, in particular xanthene and cyanine fluorescent dyes
[5] = Photobleaching of aqueous dye solution under 532-nm Nd-YAG laser irradiation, monitored by UV-Vis absorption
Procedure: The addition of cucurbituril (mixture of a plurality of cucurbiturils, wherein cucurbit[7]uril (formula (D), also known as CB7) was the predominant species according to mass spectrometry, with cucurbit[5]uril as a detectable impurity), concentration of cucurbit[7]uril 1-2 mM, mixture prepared as described in C. […] The photostabilisation of the fluorescent dye stabilised by cucurbituril (CB7) was monitored by the characteristic visible absorption band with a Varian Cary 50 UV-VIS spectrophotometer, based on a cucurbituril-free, optically adapted (at 532 nm) solution of the fluorescent dye. The UV-Vis spectra were recorded at different irradiation times (FIG. 1), and the decreasing absorption (A) at 532 nm was plotted against the pertinent function log([10^A0−1]/[10^A−1]). […] The concentrations with and without cucurbit[7]uril are not identical, but were so chosen that the absorbance at 532 nm was identical at the start of irradiation. The concentration of rhodamine 6G was lower in samples containing cucurbit[7]uril than in samples without cucurbit[7]uril owing to a higher extinction coefficient.
The quantum yield of the photobleaching was determined by means of the initial linear region of the graph (FIG. 2) of the ratio of the gradients S(D)/S(D+CB7)=εDφb(D)/[εD+CB7φb(D+CB7)], wherein εD+CB7 and εD are the extinction coefficient of the dye (D) with and without CB7 at the irradiation wavelength of 532 nm.
The chosen stabilisation factor was the ratio of the quantum yields of the photobleaching in the absence and presence of CB7.

[6] = Decrease in photon count rate in fluorescence correlation spectroscopy (FCS) on a confocal microscope; format: physicochemical; settings: for relative photon count rate: irradiation for 2000 seconds; for count rate present: after 30 minutes irradiation, 10 nM dye
Procedure: Aqueous solutions of fluorescent dyes (10 nM) with and without cucurbit[7]uril (1 mM) were also studied by fluorescence correlation spectroscopy (FCS) on a confocal microscope (Carl Zeiss LSM 510 Confocor 2), which is used for several applications relevant for biology, biochemistry and spectroscopy. 400 μl of each solution were transferred to an 8-chamber cover glass system and irradiated with the light of a CW laser. The decrease in the count rate, which is directly proportional to the mean fluorescence intensity of the sample, was measured against the irradiation time. […] Considerable photostabilisation can again be seen, because without cucurbit[7]uril less than 30%, but with cucurbit[7]uril still more than 90% of the count rate is present after 30 minutes. The observed photostabilisation factors are contained in Table 2 (footnotes b, c, d).
The photon count rate in samples containing cucurbit[7]uril fell during irradiation for 2000 seconds only to about 95%, while the […] of the cucurbit[7]uril-free sample fell to about 25% of the initial value in the same time.

| Compound | ε × φf (brightness) ([1]; with 1 mM CB7) | φf ([1]; with 1 mM CB7) | ε × φf (brightness) ([1]; without CB7) | φf ([1]; without CB7) | λabs max ([2]; with 1 mM CB7) | λem max ([2]; with 1 mM CB7) | λabs max ([2]; without CB7) | λem max ([2]; without CB7) | photostabilisation by the use of a cucurbituril [4] | further results |
| --- | --- | --- | --- | --- | --- | --- | --- | --- | --- | --- |
| Cc1cc(=O)oc2c3c4c(cc12)CCCN4CCC3 [Coumarin-102, coumarin 102] | 17807 | 0.754 | 14388 | 0.66 | 404.6 | 476.0 | 392.6 | 489.0 |  | absorbance (extinction coefficient) and fluorescence quantum yield (intensity) in a complex with cucurbituril versus without [1]: greater |
| CCN1C(=CC=CC2=[N+](CC)c3ccc(S(=O)(=O)[O-])cc3C2(C)C)C(C)(C)c2cc(S(=O)(=O)O)ccc21 [Cyanine 3, cyanine 3] | 11502 | 0.108 | 18000 | 0.15 | 558.6 | 571.0 | 544.6 | 560.0 |  |  |
| CCN1C(=CC=CC=CC2=[N+](CC)c3ccc(S(=O)(=O)[O-])cc3C2(C)C)C(C)(C)c2cc(S(=O)(=O)O)ccc21 [Cyanine 5, cyanine 5] | 51000 | 0.456 | 37260 | 0.27 | 642.2 | 657.0 | 642.0 | 660.0 |  | absorbance (extinction coefficient) and fluorescence quantum yield (intensity) in a complex with cucurbituril versus without [1]: greater |
| CCN=c1cc2oc3cc(NCC)c(C)cc3c(-c3ccccc3C(=O)OCC)c-2cc1C.Cl [Rhodamine 6G, rhodamine 6G] | 81594 | 0.883 | 71218 | 0.89 | 534.6 | 555.0 | 526.0 | 552.0 | Particularly good photostabilisation | Stabilisation factor ([3]; quartz cuvette): >500*; Stabilisation factor ([3]; screw-top glass bottle): >5000*; fluorescence intensity after exposure to daylight ([3]; with cucurbit[7]uril in glass bottles): hardly decreases at all; fluorescence intensity after exposure to daylight ([3]; without cucurbit[7]uril, glass bottle): 60 % of the original value; fluorescence intensity after exposure to daylight ([3]; without cucurbit[7]uril, quartz cuvettes): 90 % of the original value; Stabilisation factor ([5]; 1 mM CB7, 3 μM dye solutions, 532-nm laser light (1.3 W, 10 Hz) of a Nd-YAG laser): 30.0^a; Stabilisation factor ([5]; with 1 mM CB7, high laser power (2.1 W), 532 nm): 7.5*; Stabilisation factor ([5]; with 1 mM CB7, low laser power (1.3 W), 532 nm): 30*; number of absorption cycles before a molecule decomposes ([5]; with addition of cucurbit[7]uril (CB7 solution)): 22 million; number of absorption cycles before a molecule decomposes ([5]; without cucurbit[7]uril): 0.8 million |
| CN(C)c1ccc2c(-c3ccccc3C(=O)[O-])c3ccc(N(C)C)cc3[o+]c2c1 [Tetramethylrhodamine, tetramethylrhodamine] | 20277 | 0.271 | 17553 | 0.20 | 558.6 | 582.0 | 552.6 | 577.0 | Particularly good photostabilisation | Stabilisation factor ([6]; 1 mM CB7, 10 nM dye solutions, 514-nm laser light (30 mW, cw), FCS, after 35 minutes, via photon count rate): 4.3^b; relative photon count rate ([6]; cucurbit[7]uril-free sample): about 25 % of the initial value; count rate present ([6]; with cucurbit[7]uril (1 mM)): more than 90%; relative photon count rate ([6]; with cucurbit[7]uril): about 95 % of the initial value; count rate present ([6]; without cucurbit[7]uril): less than 30% |
| Cc1c(C)c2cc3c4c(c2oc1=O)CCCN4CCC3 [coumarin 39] |  |  |  |  |  |  |  |  | Particularly good photostabilisation |  |
| O=C1N2CN3C(=O)N4CN5C(=O)N6CN7C(=O)N8CN9C(=O)N%10CN1C1C2N2CN%11C(=O)N(CN%12C(=O)N(CN%13C(=O)N(CN%14C(=O)N(CN1C2=O)C%10C%149)[C@H]8[C@H]7%13)[C@H]6[C@H]5%12)C4C3%11 (some centres unmarked) [cucurbit[5]uril] |  |  |  |  |  |  |  |  |  | photostabilisation of conventional fluorescent dyes by the cucurbituril [4]: best photostabilisation |
| O=C1N2CN3C(=O)N4CN5C(=O)N6CN7C(=O)N8CN9C(=O)N%10CN%11C(=O)N%12CN1C1C2N2CN%13C(=O)N(CN%14C(=O)N(CN%15C(=O)N(CN%16C(=O)N(CN%17C(=O)N(CN1C2=O)C%12C%11%17)C%10C9%16)C8C7%15)C6C5%14)C4C3%13 (centres unmarked) [cucurbit[6]uril] |  |  |  |  |  |  |  |  |  | photostabilisation of conventional fluorescent dyes by the cucurbituril [4]: best photostabilisation |
| O=C1N2CN3C(=O)N4CN5C(=O)N6CN7C(=O)N8CN9C(=O)N%10CN%11C(=O)N%12CN%13C(=O)N%14CN%15C(=O)N%16CN1C1C2N2CN%17C(=O)N(CN%18C(=O)N(CN%19C(=O)N(CN%20C(=O)N(CN%21C(=O)N(CN%22C(=O)N(CN%23C(=O)N(CN1C2=O)C%16C%15%23)C%14C%13%22)C%12C%11%21)C%10C9%20)C8C7%19)C6C5%18)C4C3%17 (centres unmarked) [cucurbit[8]uril] |  |  |  |  |  |  |  |  |  | photostabilisation of conventional fluorescent dyes by the cucurbituril [4]: best photostabilisation |
| O=C1OC2(c3ccc(O)cc3Oc3cc(O)ccc32)c2ccccc21 [fluorescein] |  |  |  |  |  |  |  |  |  | improvement in photostability by cucurbiturils according to formulae (B) to (E) ([4]; anionic fluorescent dye): only a slight or no improvement |
| rhodamine 123 | 24097 | 0.362 | 57470 | 0.83 | 502.6 | 532.0 | 500.0 | 525.0 | Particularly good photostabilisation | number of absorption cycles before a molecule decomposes ([5]; without cucurbit[7]uril): 1.6 million |
